According to ChEMBL document CHEMBL4330139, “Synthetically modified methoxsalen for enhanced cytotoxicity in light and dark reactions” (Bioorg Med Chem Lett, 2019):

Tests used:
PAM212 = assay: Phototoxicity against mouse PAM212 cells assessed as cell growth inhibition preincubated for 30 mins followed by 1.28 J/cm2 UV light exposure and measured after 5 days by coulter counting method; format: functional, cell-based; details: PAM212, light or radiation study
[1] = Dark toxicity against mouse PAM212 cells assessed as cell growth inhibition incubated for 30 mins under dark condition measured after 5 days by coulter counting method; format: cell-based
[2] = Dark toxicity against mouse PAM212 cells assessed as cell growth inhibition incubated for 5 days under dark condition by coulter counting method; format: cell-based

| Structure (SMILES) | IC50 (PAM212) [µM] | IC50 at 30 min [1] [µM] | IC50 at 5 days [2] [µM] |
| --- | --- | --- | --- |
| COc1c2occc2c(NC(=O)c2ccc(N=[N+]=[N-])cc2)c2ccc(=O)oc12 | 33 | > 100 | > 300 |
| COc1c2occc2c(/N=N/N(C)C)c2ccc(=O)oc12 | > 100 | > 100 | 20 |
| CCN(CC)/N=N/c1c2ccoc2c(OC)c2oc(=O)ccc12 | > 100 | > 100 | 6 |
| COc1c2occc2c(NC(=O)NCCCl)c2ccc(=O)oc12 | > 100 | > 100 | > 300 |
| CCN(C)/N=N/c1c2ccoc2c(OC)c2oc(=O)ccc12 | > 70 | > 100 | 10 |
| CCCCN(C)/N=N/c1c2ccoc2c(OC)c2oc(=O)ccc12 | 4 | > 100 | 7 |
| COc1c2occc2c(NC(=O)CCl)c2ccc(=O)oc12 | 40 | 50 | 4 |
| COc1c2occc2cc2ccc(=O)oc12 [METHOXSALEN] | 0.1 | > 100 | > 100 |
